Data taken from article PMC9854712 (Antioxidants, 2023).

Assays:
[1] = system: DU-145 cells; test: MTT cell viability assay, DU-145; type: cell-based; details: for viability at 10 µM: Homo sapiens, DU-145, 48 h, read-out: Cell growth % at 10 µM, DU-145
Description: (§1) The cell lines were obtained from the American Type Culture Collection (ATCC). Five tumor cell lines (MDA-MB-231, MCF-7, HCT116, HTB-54, and DU-145) and two non-tumorigenic cells (184B5 and BEAS-2B) were grown in RPMI 1640 medium (Gibco), and the HT-29 tumor cell line was grown in McCoy’s medium. Both mediums were supplemented with 10% fetal bovine serum (FBS; Gibco) and 1% antibiotics (10.00 units/mL penicillin and 10.00 μg/mL streptomycin; Gibco). Cells were preserved in tissue culture flasks at 37 °C and 5% CO2. The culture medium was replaced every three days.
(§2) The effect of each compound on cell viability was tested using the MTT assay. […] Selected compounds were then tested at seven different concentrations (0.5–100 μM) in MCF-7, HCT116, HT-29, HTB-54, 184B5 and BEAS-2B cells. Cells were seeded at 10^4 per well onto flat-bottomed 96-well culture plates. They were treated with either DMSO or increasing concentration of the corresponding compound for 48 h. Then, they were incubated with 20 μL of 3-(4,5-dimethylthiazol-2-yl)-2,5-diphenyltetrazolium bromide (MTT) (2 mg /mL stock; Aldrich) for 2,5 h and analyzed for their ability to generate a purple formazan dye. These formazan crystals were dissolved in 50 μL of DMSO. The absorbance was measured at a wavelength of 550 nm and the ratio of viable cells was calculated.
(§3) Results are expressed as cell viability % at 10 μM. Selectivity index were calculated as the ratio of the IC50 values determined for the non-malignant and the tumor cells in breast (IC50 (184B5)/IC50 (MCF-7)) and lung (IC50 (BEAS-2B)/IC50 (HTB-54)) cell lines. Data were obtained from at least three independent experiments performed in triplicates.

[2] = target: T1, AChE (Rattus norvegicus, UniProt P37136); test: AChE inhibition by Ellman's method (rat frontal cortex homogenate); type: biochemical; details: at 10^−6 M, Ellman's method
T1 construct: from tissue; host or cells: frontal cortex of male Wistar rats (crude homogenate)
T1 sequence (P37136 32-614): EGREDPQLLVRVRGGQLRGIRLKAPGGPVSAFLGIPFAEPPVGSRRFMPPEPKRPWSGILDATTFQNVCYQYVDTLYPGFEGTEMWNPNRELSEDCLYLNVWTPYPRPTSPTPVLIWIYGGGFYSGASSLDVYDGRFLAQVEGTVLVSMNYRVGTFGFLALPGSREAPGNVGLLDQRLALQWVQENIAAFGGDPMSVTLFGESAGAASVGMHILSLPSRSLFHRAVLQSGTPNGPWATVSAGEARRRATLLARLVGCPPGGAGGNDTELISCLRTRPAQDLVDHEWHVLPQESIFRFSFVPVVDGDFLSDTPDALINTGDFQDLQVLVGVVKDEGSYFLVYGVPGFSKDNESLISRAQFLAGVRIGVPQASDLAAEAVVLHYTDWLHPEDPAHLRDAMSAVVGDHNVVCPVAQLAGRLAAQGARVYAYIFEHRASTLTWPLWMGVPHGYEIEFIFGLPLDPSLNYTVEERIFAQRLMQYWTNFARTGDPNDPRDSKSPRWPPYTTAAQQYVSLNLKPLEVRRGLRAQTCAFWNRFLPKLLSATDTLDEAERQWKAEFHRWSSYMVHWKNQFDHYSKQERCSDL
Description: Frontal cortex tissue obtained from male Wistar rats was homogenized in 39 volumes of 75 mM sodium phosphate buffer (pH 7.4). A mixture of 260 μL containing the compounds assessed, acetylthiocholine iodide and 5 μL tissue homogenate was incubated for 8 min. The reaction was then terminated by adding 50 μL 3% (w/v) sodium dodecyl sulphate followed by 50 μL 0.2% (w/v) 5,5′-dithio-bis(2-nitrobenzoic) acid to produce the yellow anion of 5-thio-2-nitro-benzoic-acid. The extent of the color production was measured spectrophotometrically at 405 nm using Multiskan Ex (Thermo Electron Corporation). […] Results are expressed as the mean ± SD and each experiment was repeated three times.

[3] = system: HT-29 cells; test: MTT cell viability assay, HT-29; type: cell-based; details: 48 h; for viability at 10 µM: Homo sapiens, HT-29, 10 µM, read-out: Cell growth % at 10 µM, HT-29
Description: as §1, §2, §3

[4] = system: MDA-MB-231 cells; test: MTT cell viability assay, MDA-MB-231; type: cell-based; details: for viability at 10 µM: Homo sapiens, MDA-MB-231, 48 h, read-out: Cell growth % at 10 µM, MDA-MB-231
Description: as §1, §2, §3

[5] = system: HTB-54 cells; test: MTT cell viability assay, HTB-54; type: cell-based; details: 10 µM, 48 h, MTT; for viability at 10 µM: HTB-54, read-out: Cell growth % at 10 µM, HTB-54
Description: as §1, §2, §3

Row | Compound | viability at 10 µM [1] [%] | inhibition at 1 µM [2] [%] | viability at 10 µM [3] [%] | viability at 10 µM [4] [%] | viability at 10 µM [5] [%] | Cell growth % at 10 µM, DU-145 ([1]; 48 h) [%] | % AChE Inhibition [2] [%] | Cell growth % at 10 µM, HT-29 ([3]; 10 µM) [%] | Cell growth % at 10 µM, MDA-MB-231 ([4]; 48 h) [%] | Cell growth % at 10 µM, HTB-54 [5] [%]
1 | C=CC[Se]C(=O)c1cccnc1 [Compound 7a, Se-allyl pyridine-3-carboselenoate] | 51.7 ± 9.8 | 13.6 ± 5.5 | 64.3 ± 14.1 | 35.3 ± 6.4 | 22 ± 5.1 | – | – | – | – | –
2 | C#CC[Se]C(=O)c1ccco1 [Compound 11b, Se-prop-2-ynyl furan-2-carboselenoate] | 70 ± 4.5 | 27.2 ± 4.1 | > 100 | 99 ± 11.2 | 75.4 ± 15.5 | – | – | – | – | –
3 | C=CC[Se]C(=O)c1ccno1 [Compound 12a, Se-allyl isoxazole-5-carboselenoate] | 62.7 ± 4.7 | 4.2 ± 6.7 | 70.7 ± 10.7 | 96.8 ± 15.8 | 95.5 ± 5.9 | – | – | – | – | –
4 | C#CC[Se]C(=O)c1ccccc1Nc1cccc(C(F)(F)F)c1 [Compound 19b] | 25.2 ± 2.2 | 21.1 ± 2.6 | 61.6 ± 9.8 | 92.8 ± 10.2 | 43.6 ± 18.4 | – | – | – | – | –
5 | C=CC[Se]C(=O)c1ccccc1Cl [Compound 3a, Se-allyl 2-chlorobenzoselenoate] | 39.8 ± 6.3 | 21.5 ± 7.5 | 63.2 ± 16.9 | 29.7 ± 6.4 | 37.5 ± 7.3 | – | – | – | – | –
6 | C=CC[Se]C(=O)c1ccccc1 [Compound 2a, Se-allyl benzoselenoate] | 65.6 ± 5.6 | 22.6 ± 1.6 | 85.3 ± 19.4 | 37.9 ± 3.6 | 43.2 ± 9 | – | – | – | – | –
7 | C#CC[Se]C(=O)c1ccccc1 [Compound 2b, Se-prop-2-ynyl benzoselenoate] | 72.9 ± 13.6 | 26.9 ± 7.3 | 78.3 ± 6.9 | 79.3 ± 18.7 | 78.3 ± 11.4 | – | – | – | – | –
8 | C#CC[Se]C(=O)c1ccccc1OC(C)=O [Compound 14b, 2-(prop-2-ynylselanyl)carbonylphenylacetate] | 25.5 ± 6.2 | 21.1 ± 5.2 | 65.6 ± 7.3 | 52.3 ± 7.1 | 78.9 ± 9 | – | – | – | – | –
9 | C=CC[Se]C(=O)c1ccc2c(c1)OCO2 [Compound 4a, Se-allyl benzodioxole-5-carboselenoate] | > 100 | 2.5 ± 9.3 | 33.6 ± 12.6 | 97.3 ± 10.4 | 67.6 ± 15.1 | – | – | – | – | –
10 | C#CC[Se]C(=O)C(C)c1ccc(CC(C)C)cc1 (stereo not shown) [Compound 15b, Se-prop-2-ynyl 2-(4-isobutylphenyl)propaneselenoate] | 34.7 ± 6.3 | 8.5 ± 11.1 | 59.3 ± 4 | 59.7 ± 15.7 | 95.6 ± 5.7 | – | – | – | – | –
11 | C=CC[Se]C(=O)c1ccccc1Nc1cccc(C(F)(F)F)c1 [Compound 19a, Se-allyl 2-(3-trifluoromethylphenyl)aminobenzoselenoate] | 17 ± 2.9 | 19.3 ± 2 | 46 ± 8.7 | 81.6 ± 9.7 | 16.3 ± 7.6 | – | – | – | – | –
12 | C#CC[Se]C(=O)c1ccccc1Nc1cccc(C)c1C [Compound 18b, Se-prop-2-ynyl 2-(2,3-dimethylphenyl)aminobenzoselenoate] | 32.6 ± 4.6 | 20 ± 2.4 | 66.5 ± 9.5 | 99 ± 11.2 | 62.3 ± 8.3 | – | – | – | – | –
13 | C#CC[Se]C(=O)c1cccnc1Cl [Compound 8b, Se-prop-2-ynyl 2-chloropyridine-3-carboselenoate] | 77.1 ± 13.9 | 17.1 ± 10.1 | 87.7 ± 10.1 | 92.9 ± 16.5 | 99.4 ± 16.2 | – | – | – | – | –
14 | C=CC[Se]C(=O)C12CC3CC(CC(C3)C1)C2 [Compound 1a, Se-allyl adamantane-1-carboselenoate] | > 100 | 19.3 ± 4.1 | 91 ± 3.6 | 92.6 ± 12.7 | 72.1 ± 8.1 | – | – | – | – | –
15 | C#CC[Se]C(=O)c1ccccc1O [Compound 13b, Se-prop-2-ynyl 2-hydroxybenzoselenoate] | 26.8 ± 5.5 | 21.5 ± 9.5 | 70.2 ± 13.2 | 52.3 ± 7.9 | 82.1 ± 7.6 | – | – | – | – | –
16 | C=CC[Se]C(=O)c1ccccc1Nc1cccc(C)c1C [Compound 18a, Se-allyl 2-(2,3-dimethylphenyl)aminebenzoselenoate] | 74.7 ± 13.7 | 18.4 ± 3.6 | 71.5 ± 11.7 | 85.9 ± 9.5 | 40.9 ± 18.5 | – | – | – | – | –
17 | C#CC[Se]C(=O)c1cccnc1 [Compound 7b, Se-prop-2-ynyl pyridine-3-carboselenoate] | 54.6 ± 4.5 | 24.9 ± 2.2 | > 100 | 91.3 ± 8.3 | 91.4 ± 6.6 | – | – | – | – | –
18 | C=CC[Se]C(=O)CCc1ccccc1 [Compound 6a, Se-allyl 3-phenylpropaneselenoate] | 26.9 ± 4.4 | 18.7 ± 12.4 | 63.7 ± 12.3 | 35.9 ± 2.6 | 36.3 ± 7 | – | – | – | – | –
19 | Se-prop-2-ynyl 3a,7a-dihydrobenzo[d][1,3]dioxole-5-carboselenoate [Compound 4b] | – | – | – | – | – | 19.7 ± 2.2 | 16.5 ± 10.6 | 50.6 ± 7.8 | 62.6 ± 7.4 | 57.8 ± 8.1
20 | C#CC[Se]C(=O)c1cccs1 [Compound 9b, Se-prop-2-ynyl thiophene-2-carboselenoate] | 22.3 ± 2.7 | 20.6 ± 2.7 | 76 ± 13.5 | 70.2 ± 6.9 | 58.9 ± 7.8 | – | – | – | – | –
21 | C=CC[Se]C(=O)c1cccnc1Cl [Compound 8a, Se-allyl 2-chloropyridine-3-carboselenoate] | 49.5 ± 6.6 | 6.3 ± 4.1 | 62.2 ± 16.1 | 37.1 ± 4.7 | 25.8 ± 5.2 | – | – | – | – | –
22 | C#CC[Se]C(=O)c1sccc1Cl [Compound 10b, Se-prop-2-ynyl 3-chlorothiophene-2-carboselenoate] | 66.6 ± 8.7 | 24.4 ± 7.1 | 80.2 ± 10.9 | 62.5 ± 7.7 | 81.2 ± 11.6 | – | – | – | – | –
23 | C#CC[Se]C(=O)/C=C/c1ccccc1 [Compound 5b, Se-prop-2-ynyl 3-phenylprop-2E-eneselenoate] | 70.5 ± 11.5 | 26 ± 3.7 | 80.8 ± 8.5 | 64.8 ± 14.7 | 79.8 ± 7.7 | – | – | – | – | –
24 | C#CC[Se]C(=O)[C@@H](C)c1ccc2cc(OC)ccc2c1 [Compound 16b, Se-prop-2-ynyl (S)-2-(6-methoxynaphthalen-2-yl)propaneselenoate] | 66.4 ± 4.4 | 16.2 ± 2.3 | 65.7 ± 10 | 29.8 ± 9.6 | > 100 | – | – | – | – | –
25 | C#CC[Se]C(=O)CCc1ccccc1 [Compound 6b, Se-prop-2-ynyl 3-phenylpropaneselenoate] | 76.6 ± 12 | 24.5 ± 6.7 | – | 78.9 ± 8.4 | 83.4 ± 7.7 | – | – | – | – | –
